From patent publication US10739330B2, “Carbopyronone compounds useful as diagnostic adjuvants” (LIFE TECHNOLOGIES CORPORATION, priority 2014, dated 2020)
Where two headings read alike, the source gives them in different places.

Columns and labels:
PBMCs [1] = test system: PBMCs
Excerpt: (§1) To test for cytotoxicity, PBMCs were stained with CELLTRACE (Thermo Fisher Scientific) CFSE (positive control) or Compound 2. The cells were split into samples for culturing and one sample was stimulated with anti-hCD3 (clone UCHT1) and supplemented with recombinant hIL2. Dye loading was observed by fluorescent microscopy. After proliferation for 3 to 5 days, the samples were stained with the appropriate viability dye (e.g., SYTOX dye) and analyzed by flow cytometry (see Table 3).

[2] = test system: lymphocyte layer of cells from whole blood; experiment: Cell tracing by dye dilution, flow cytometry (Compound 2 vs CELLTRACE Far Red DDAO); assay type: cell-based; details: 5 μM, 20 min 37° C.; stimulated 5 days with DYNABEADS Human T-Activator CD3/CD28; 633/635 nm excitation, 660/20 emission filter
Experimental: The whole blood sample (20 mL) was diluted in 20 mL of PBS and then centrifuged for 30 min after addition of FICOLL-PAQUE Plus (15 mL) (GE Healthcare). The lymphocyte layer of cells was suspended in 25 mL of PBS buffer and centrifuged for 5 min. The cells were counted on the COUNTESS Automated Counter and the concentration was adjusted to 10^6 cells/mL. 10 mL of cells was incubated with either Compound 2 (FIG. 1A) or CELLTRACE Far Red DDAO (FIG. 1B) (Thermo Fisher Scientific) (5 μM) for 20 min in a 37° C. water bath. After incubation the cells were treated with 40 mL of OPTMIZER T Cell Expansion (Thermo Fisher Scientific) for 5 min. The treatment with OPTMIZER T Cell Expansion was repeated one more time after centrifugation. Next, the stained cells were stimulated with 50 μL DYNABEADS Human T-Activator CD3/CD28 (Thermo Fisher Scientific) per 1 mL of cells for 5 days. The stimulated cells were then analyzed using an ATTUNE flow cytometer (Thermo Fisher Scientific) with 633/635 nm excitation and a 660/20 bandpass emission filter.

A549 cells = experiment: CYQUANT Direct cytotoxicity assay; details: 10 μM, 30 mins at 37° C.; assayed on days 1, 2 and 3
Experimental: A549 cells plated in a 96 well plate were labeled with [sequence] […] The LCIS was then aspirated from cells and complete media added for an overnight incubation. The following day (Day 1) cells were assayed for cytotoxicity using the CYQUANT Direct assay (Thermo Fisher Scientific).

PBMCs [3] = experiment: Cytotoxicity test in PBMCs, viability dye (SYTOX) and flow cytometry; details: after proliferation for 3 to 5 days
Excerpt: as §1

**Q.** With “Carboxyfluorescein diacetate succinimidyl ester [CELLTRACE CFSE]” as the compound, how does the “% Live Cells” value (PBMCs [1]) read?
**A.** 52%

**Q.** Which “generations of cells traced” value [2] does the source give for `CN1CCCc2cc3c(cc21)C(C)(C)c1cc2c(cc1=C3c1ccccc1C(=O)[O-])CCC[N+]=2CCCCCC(=O)ON1C(=O)CCC1=O` [Compound 2, 2-(1-(6-((2,5-dioxopyrrolidin-1-yl)oxy)-6-oxohexyl)-11-metheyliumyl-13,13-dimethyl-1,2,3,4,8,9,10,13-octahydro-1114-benzo[1,2-g:5,4-g′]diquinolin-6-yl)benzoate] here?
**A.** seven

**Q.** What about the “cytotoxicity compared to DMSO alone” value (A549 cells) of the same compound?
**A.** no cytotoxicity

**Q.** What about the “% Live Cells” value (PBMCs [3]; 2 μM dye) of the same compound?
**A.** 53%

**Q.** And the “% Live Cells” value (PBMCs [3]; 5 μM dye)?
**A.** 55%

**Q.** What about the “% Live Cells” value (PBMCs [3]; 10 μM dye) of the same compound?
**A.** 64%
